Test results reported in PubChem BioAssay (NCI).
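Five compound concentrations were applied to cells in 96-well plates for 48 hours; endpoints were derived by simple linear interpolation of the resulting dose-response curve. At the GI50, growth is halved. The concentration for full growth arrest is given as TGI.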

How the values were obtained:
Experiment in all cases: growth of human tumour cells (NCI), 48 h
[1] = tested on: ACHN renal
[2] = tested on: BT-549 breast
[3] = tested on: CAKI-1 renal
[4] = tested on: CCRF-CEM leukemia
[5] = tested on: EKVX NSCLC
[6] = tested on: HOP-62 NSCLC
[7] = tested on: K-562 leukemia
[8] = tested on: KM12 colon
[9] = tested on: M14 melanoma
[10] = tested on: MCF7 breast
[11] = tested on: MDA-MB-231 breast
[12] = tested on: MOLT-4 leukemia
[13] = tested on: NCI-H226 lung
[14] = tested on: NCI-H460 lung
[15] = tested on: NCI/ADR-RES ovarian
[16] = tested on: OVCAR-4 ovarian
[17] = tested on: OVCAR-5 ovarian
[18] = tested on: PC-3 prostate
[19] = tested on: SK-OV-3 ovarian
[20] = tested on: SNB-19 CNS
[21] = tested on: SW-620 colon
[22] = tested on: T-47D breast
[23] = tested on: UACC-62 melanoma
[24] = tested on: 786-0 renal
[25] = tested on: A498 renal
[26] = tested on: A549 NSCLC
[27] = tested on: COLO 205 colon
[28] = tested on: DU-145 prostate
[29] = tested on: HCC-2998 colon
[30] = tested on: HCT-116 colon
[31] = tested on: HCT-15 colon
[32] = tested on: HL-60(TB) leukemia
[33] = tested on: HOP-92 NSCLC
[34] = tested on: HS 578T breast
[35] = tested on: HT29 colon
[36] = tested on: IGROV1 ovarian
[37] = tested on: LOX IMVI melanoma
[38] = tested on: MALME-3M melanoma
[39] = tested on: MDA-MB-435
[40] = tested on: NCI-H23 lung
[41] = tested on: NCI-H522 lung
[42] = tested on: OVCAR-3 ovarian
[43] = tested on: OVCAR-8 ovarian
[44] = tested on: RPMI-8226 leukemia
[45] = tested on: RXF 393 renal
[46] = tested on: SF-268 CNS
[47] = tested on: SF-295 CNS
[48] = tested on: SF-539 CNS
[49] = tested on: SK-MEL-2 melanoma
[50] = tested on: SK-MEL-28 melanoma
[51] = tested on: SK-MEL-5 melanoma
[52] = tested on: SN12C renal
[53] = tested on: SNB-75 CNS
[54] = tested on: SR leukemia
[55] = tested on: TK-10 renal
[56] = tested on: U251 CNS
[57] = tested on: UACC-257 melanoma
[58] = tested on: UO-31 renal

## Cn1nc(/C=C\C(=O)N2CC(CCl)c3c2cc(N)c2ccccc32)cc1/C=C/C(=O)N1CC(CCl)c2c1cc(N)c1ccccc21 (configuration not stated)
[1]
  TGI: > 100 µM
[2]
  TGI: < 0.01 µM
[3]
  TGI: < 0.01 µM
[4]
  TGI: < 0.01 µM
[5]
  TGI: 0.0965 µM
[6]
  TGI: 0.0411 µM
[7]
  TGI: > 100 µM
[8]
  TGI: > 100 µM
[9]
  TGI: < 0.01 µM
[10]
  TGI: > 100 µM
[11]
  TGI: < 0.01 µM
[12]
  TGI: > 100 µM
[13]
  TGI: < 0.01 µM
[14]
  TGI: > 100 µM
[15]
  TGI: 0.295 µM
[16]
  TGI: > 100 µM
[17]
  TGI: < 0.01 µM
[18]
  TGI: 0.0596 µM
[19]
  TGI: > 100 µM
[20]
  TGI: 0.591 µM
[21]
  TGI: > 100 µM
[22]
  TGI: > 100 µM
[23]
  TGI: < 0.01 µM

## NC(=NCCCOc1ccc(Cl)cc1)Nc1ccc(Cl)cc1
[24]
  GI50: 2150 nM
  TGI: 6.67 µM
[25]
  GI50: 1920 nM
  TGI: 5.43 µM
[26]
  GI50: 3.48 µM
  TGI: 12.7 µM
[1]
  GI50: 2010 nM
  TGI: 5.31 µM
[2]
  GI50: 3.35 µM
  TGI: 10 µM
[3]
  GI50: 2770 nM
  TGI: 9.11 µM
[4]
  GI50: 2110 nM
  TGI: 6.74 µM
[27]
  GI50: 1170 nM
  TGI: 2.75 µM
[28]
  GI50: 2670 nM
  TGI: 7.73 µM
[5]
  GI50: 3.87 µM
  TGI: 13.3 µM
[29]
  GI50: 1500 nM
  TGI: 3.12 µM
[30]
  GI50: 1610 nM
  TGI: 3.24 µM
[31]
  GI50: 2980 nM
  TGI: 9.29 µM
[32]
  GI50: 1880 nM
  TGI: 4.58 µM
[6]
  GI50: 2530 nM
  TGI: 8.01 µM
[33]
  GI50: 1510 nM
  TGI: 5.53 µM
[34]
  GI50: 3.39 µM
  TGI: 14 µM
[35]
  GI50: 2120 nM
  TGI: 5.95 µM
[36]
  GI50: 2020 nM
  TGI: 5.83 µM
[7]
  GI50: 1850 nM
  TGI: 4.32 µM
[37]
  GI50: 1600 nM
  TGI: 2.98 µM
[9]
  GI50: 1670 nM
  TGI: 3.39 µM
[38]
  GI50: 1950 nM
  TGI: 4.14 µM
[10]
  GI50: 2200 nM
  TGI: 7.35 µM
[11]
  GI50: 1970 nM
  TGI: 4.56 µM
[39]
  GI50: 1760 nM
  TGI: 3.37 µM
[12]
  GI50: 1660 nM
  TGI: 4.66 µM
[13]
  GI50: 3.97 µM
  TGI: 19.6 µM
[40]
  GI50: 2310 nM
  TGI: 7.43 µM
[14]
  GI50: 2700 nM
  TGI: 7.94 µM
[41]
  GI50: 2050 nM
  TGI: 4.8 µM
[15]
  GI50: 3.03 µM
  TGI: 9.92 µM
[42]
  GI50: 2840 nM
  TGI: 8.09 µM
[16]
  GI50: 2300 nM
  TGI: 7.9 µM
[17]
  GI50: 2020 nM
  TGI: 6.56 µM
[43]
  GI50: 3.16 µM
  TGI: 12.1 µM
[18]
  GI50: 2100 nM
  TGI: 6.29 µM
[44]
  GI50: 2100 nM
  TGI: 4.66 µM
[45]
  GI50: 1860 nM
  TGI: 6.97 µM
[46]
  GI50: 3.1 µM
  TGI: 13 µM
[47]
  GI50: 2420 nM
  TGI: 6.9 µM
[48]
  GI50: 1830 nM
  TGI: 3.72 µM
[49]
  GI50: 2320 nM
  TGI: 4.72 µM
[50]
  GI50: 1890 nM
  TGI: 3.64 µM
[51]
  GI50: 1740 nM
  TGI: 3.16 µM
[19]
  GI50: 3.31 µM
  TGI: 12.3 µM
[52]
  GI50: 2750 nM
  TGI: 10.9 µM
[20]
  GI50: 2460 nM
  TGI: 13.6 µM
[53]
  GI50: 725 nM
  TGI: 11.8 µM
[54]
  GI50: 2170 nM
  TGI: 5.9 µM
[21]
  GI50: 1940 nM
  TGI: 5.59 µM
[55]
  GI50: 1750 nM
  TGI: 3.89 µM
[56]
  GI50: 2650 nM
  TGI: 8.36 µM
[57]
  GI50: 1910 nM
  TGI: 3.84 µM
[23]
  GI50: 1880 nM
  TGI: 3.94 µM
[58]
  GI50: 2170 nM
  TGI: 8.1 µM

## CC(C)(C)[Si](C)(C)OCC1OC(n2cnc3c(NC(=O)c4ccccc4)ncnc32)CC1O (configuration not stated)
[24]
  TGI: 38.6 µM
[25]
  TGI: 60.5 µM
[26]
  TGI: > 100 µM
[1]
  TGI: 95.4 µM
[3]
  TGI: > 100 µM
[4]
  TGI: 53.4 µM
[27]
  TGI: 33.1 µM
[28]
  TGI: > 100 µM
[5]
  TGI: > 100 µM
[29]
  TGI: 88.6 µM
[30]
  TGI: 70.5 µM
[31]
  TGI: > 100 µM
[32]
  TGI: 49.2 µM
[6]
  TGI: 35.5 µM
[33]
  TGI: 55.2 µM
[34]
  TGI: 45.8 µM
[35]
  TGI: > 100 µM
[36]
  TGI: 91.3 µM
[7]
  TGI: 48.2 µM
[8]
  TGI: 87.4 µM
[37]
  TGI: 33.9 µM
[9]
  TGI: 38.5 µM
[38]
  TGI: 60.7 µM
[10]
  TGI: > 100 µM
[11]
  TGI: 55.7 µM
[39]
  TGI: 44.6 µM
[12]
  TGI: 49.9 µM
[13]
  TGI: 66.5 µM
[40]
  TGI: > 100 µM
[14]
  TGI: > 100 µM
[41]
  TGI: 37.7 µM
[15]
  TGI: 98.7 µM
[42]
  TGI: 81.1 µM
[16]
  TGI: 84.6 µM
[17]
  TGI: > 100 µM
[43]
  TGI: > 100 µM
[18]
  TGI: 95.5 µM
[44]
  TGI: 47 µM
[45]
  TGI: 40.4 µM
[46]
  TGI: > 100 µM
[47]
  TGI: 44.2 µM
[48]
  TGI: 41 µM
[49]
  TGI: 57.9 µM
[50]
  TGI: 87.4 µM
[51]
  TGI: 33.3 µM
[19]
  TGI: 89.1 µM
[52]
  TGI: > 100 µM
[20]
  TGI: 74.3 µM
[53]
  TGI: 60.3 µM
[54]
  TGI: 49.6 µM
[21]
  TGI: > 100 µM
[22]
  TGI: 99.5 µM
[55]
  TGI: > 100 µM
[56]
  TGI: 51.6 µM
[57]
  TGI: > 100 µM
[23]
  TGI: 40.4 µM
[58]
  TGI: 2.96 µM
